According to patent publication US20240383882A1 (Ecstasy LLC, priority 2020, published 2024):

Tested on: male C57BL/6 mice
Experiment: 55° C. warm-water tail-flick test (antinociception)
Assay type: in vivo
Conditions: Mus musculus; half maximal effective dose in mice; using one of: warm water tail-flick test, spared nerve injury, chronic constriction injury, or Complete Freund's adjuvant induced inflammatory pain (not stated which per compound); read-out: Biological Activity (ED50)
Method: Antinociception was assessed using the 55° C. warm-water tail-flick test. The latency to the first sign of a rapid tail flick was taken as the behavioral endpoint. Each mouse was first tested for baseline latency by immersing its tail in the water and recording the time to response. Mice not responding within 2 secs were excluded from further testing. Responsive mice were then s.c. administered the test compound and tested for antinociception at 30 min, 60 min, 90 min, and 120 min time points afterward. Antinociception was calculated using the following formula: percentage of antinociception=100×(test latency−control latency)/(20−control latency).
The following new compounds were also made and tested to determine the half maximal possible effective dose, or ED50 (mg/kg), in mice, using one of: the warm water tail-flick test as in Table II, spared nerve injury, chronic constriction injury, or Complete Freund's adjuvant induced inflammatory pain. The symbols in the last column are: + indicates ED 50>50 mg/kg; ++ indicates ED 50 is less than or equal to 30 mg/kg.

Compound	ED50
CC(C)(c1ccccn1)N1CC[C@](CO)(CCc2ccc(C#N)c(F)c2)C1 [Compound 110, (R)-2-fluoro-4-(2-(3-(hydroxymethyl)-1-(2-(pyridin-2-yl)propan-2-yl)pyrrolidin-3-yl)ethyl) benzonitrile]	≤ 30 mg/kg
Cc1ccc(CN2CC[C@@](CCc3ccc(C#N)cc3)(C3OCC3(F)F)C2)cn1 (single isomer, unassigned) [Compound 198, 4-(2-((R)-3-((R or S)-3,3-difluorooxetan-2-yl)-1-((6-methylpyridin-3-yl)methyl)pyrrolidin-3-yl)ethyl) benzonitrile]	≤ 30 mg/kg
Cc1ccc(C(C)(C)N2CC[C@@](CCc3ccc(C#N)cc3)(COCc3ccccc3)C2)cn1 [Compound 17, (R)-4-(2-(3-((benzyloxy)methyl)-1-(2-(6-methylpyridin-3-yl)propan-2-yl)pyrrolidin-3-yl)ethyl) benzonitrile]	≤ 30 mg/kg
CC(C)(c1ccccn1)N1CC[C@](/C=C/c2ccc(S(C)(=O)=O)cc2)(C2CCCO2)C1 (single isomer, unassigned) [Compound 218, 2-(2-((R)-3-((E)-4-(methylsulfonyl)styryl)-3-((R or S)-tetrahydrofuran-2-yl)pyrrolidin-1-yl)propan-2-yl)pyridine]	> 50 mg/kg
CC(C)(c1ccccn1)N1CC[C@@](CCc2ccc(C#N)cc2)(CNC2(C(F)(F)F)COC2)C1 [Compound 202, (S)-4-(2-(1-(2-(pyridin-2-yl)propan-2-yl)-3-(((3-(trifluoromethyl)oxetan-3-yl)amino)methyl)pyrrolidin-3-yl)ethyl) benzonitrile]	> 50 mg/kg
CC(C)(c1ccccn1)N1CC[C@@](CCc2ccc(C#N)cc2)(CS(C)(=O)=O)C1 [Compound 162, (R)-4-(2-(3-((methylsulfonyl)methyl)-1-(2-(pyridin-2-yl)propan-2-yl)pyrrolidin-3-yl)ethyl) benzonitrile]	> 50 mg/kg
CC(C)(c1ccccn1)N1CC[C@@](CCc2ccc(C#N)s2)(C(O)(C(F)(F)F)C(F)(F)F)C1 [Compound 160, (R)-5-(2-(3-(1,1,1,3,3,3-hexafluoro-2-hydroxypropan-2-yl)-1-(2-(pyridin-2-yl)propan-2-yl)pyrrolidin-3-yl)ethyl)thiophene-2-carbonitrile]	> 50 mg/kg
CC(C)(c1ccccn1)N1CC[C@](C#N)(CCc2ccc3ccoc3c2)C1 [Compound 180, (R)-3-(2-(benzofuran-6-yl)ethyl)-1-(2-(pyridin-2-yl)propan-2-yl)pyrrolidine-3-carbonitrile]	> 50 mg/kg
CC(C)(c1ccccn1)N1CC[C@@](CCc2ccc(C#N)cn2)(C(O)C(F)(F)F)C1 (single isomer, unassigned) [Compound 120, 6-(2-((R)-1-(2-(pyridin-2-yl)propan-2-yl)-3-((R or S)-2,2,2-trifluoro-1-hydroxyethyl)pyrrolidin-3-yl)ethyl) nicotinonitrile]	> 50 mg/kg
Cc1ccc(C(C)(C)N2CC[C@](CO)(CCc3ccc(F)cc3)C2)cn1 [Compound 15, (R)-(3-(4-fluorophenethyl)-1-(2-(6-methylpyridin-3-yl)propan-2-yl)pyrrolidin-3-yl)methanol]	≤ 30 mg/kg
N#Cc1ccc(CC[C@@]2(C3CCO3)CCN(Cc3cccnc3)C2)cc1 (single isomer, unassigned) [Compound 11, 4-(2-((R)-3-((R or S)-oxetan-2-yl)-1-(pyridin-3-ylmethyl)pyrrolidin-3-yl)ethyl) benzonitrile]	≤ 30 mg/kg
CCOC(c1ccccc1)[C@]1(CCc2ccc(C#N)cc2)CCN(C(C)(C)c2ccccc2)C1 (single isomer, unassigned) [Compound 31, 4-(2-((R)-3-((R or S)-ethoxy(phenyl)methyl)-1-(2-phenylpropan-2-yl)pyrrolidin-3-yl)ethyl)benzonitrile]	> 50 mg/kg
CCOC[C@@]1(CCc2ccc(S(C)(=O)=O)cc2)CCN(C(C)(C)c2ccc(Cl)cc2)C1 [Compound 51]	≤ 30 mg/kg
